In US20220257722A1, “COMPOSITIONS AND METHODS OF TREATING AND PREVENTING SYSTEMIC COMPLICATIONS OF ACUTE ILLNESS” (United States Government As Represented By The Department …, priority 2019, published 2022):

Tested on: rat jejunal mucosa
Assay: LPS mucosal-to-serosal transport in Ussing-chambered rat jejunal mucosa (LAL test)
Type: cell-based
Conditions: for inhibitory effect of GLP-2 on LPS transport during OA/TCA exposure: inhibitor serosal 5 min before GLP-2 100 nM + NVP-728 10 μM; for amount of LPS transport at t=15 min (prior to OA/TCA exposure), in presence of GLP-2 + NVP-728: inhibitor serosal before GLP-2 + NVP-728; for OA/TCA-augmented LPS transport (t=30-45 min): mucosal LPS 10 μg/ml + OA 30 mM/TCA 0.1 mM; for OA/TCA-augmented LPS transport (t=30-45 min) / LPS transport at t=15 min (LPS alone, absence of OA/TCA): drug added 10 or 15 min before LPS; for LPS transport at t=15 min (LPS alone, absence of OA/TCA): mucosal LPS 10 μg/ml
Experimental: Short-circuit current measurements in Ussing chambered preparations. Mucosa-submucosa preparations were prepared from the mid-jejunum (˜20 cm from the pyloric ring) by muscle stripping using fine forceps under a stereomicroscope. Two or four preparations were prepared from one animal. The tissue was then mounted between two hemi-sliders with an aperture=0.3 cm^2 (Physiologic Instruments, San Diego, Calif., USA). Chambers were bathed with serosal and luminal bathing solutions in a volume of 4 ml each, maintained at 37° C. using a water recirculating heating system. The serosal Krebs-Ringer solution contained (in mM) NaCl, 117; KCl, 4.7; MgCl2, 1.2; NaH2PO4, 1.2; CaCl2, 2.5; NaHCO3, 25; glucose, 11; and bubbled with 95% O2-5% CO2 to maintain pH at 7.4. The luminal bathing solution contained NaCl, 136; KCl, 2.6; CaCl2, 1.8; HEPES, 10 (pH 7.0); mannitol, 11; and bubbled with 100% O2. The tissues were short-circuited by a voltage clamp (VCC MC6, Physiologic Instruments) at zero potential difference with automatic compensation for solution resistance. Short-circuit current (Isc) was continuously measured with tissue conductance (Gt) and TEER (Ω·cm^2) determined every 20 sec in order to assess the tissue integrity during the LPS and lipid exposure. The current was recorded by the DataQ system (Physiologic Instruments). IND (10 μM) was added to the serosal bath to eliminate the effects of endogenous prostaglandin production. The tissues were stabilized for ˜30 min before the addition of test chemicals.
LPS movement from mucosal to serosal solution. LPS movement m-to-s was assessed using a LAL test kit (Pierce Chromogenic Endotoxin Quant Kit, Pierce Biotechnology, Rockford, Ill., USA), which eliminates non-specific detection of (1,3)-β-D-glucan, then reduces false-positive LPS measurements. After tissue stabilization, time was set as t=0 min. Fifty μl of the serosal solution was collected at 0 min as a blank sample, followed by collection at t=15, 30 and 45 min. At t=0 min, LPS (10 μg/ml) was added into the mucosal solution. Vehicle (PBS alone), TCA alone (0.1 mM) in PBS or OA (3, 10, 30 mM) with TCA (0.1 mM) in PBS was added into the mucosal solution at t=15 min. The tissues were pretreated with drugs 10 or 15 min before the addition of LPS (i.e. at t=−10 or −15 min). The collected serosal solutions were kept at −80° C. until use. LPS content in the serosal solutions was measured with the LAL test according to the manufacturer's protocol. The value of background at t=0 min was subtracted and the serosal LPS appearance was expressed as Δ[LPS] (EU/ml). In some experiments, FITC-LPS (10 μg/ml) was used instead of LPS. Serosal FITC-LPS content was assessed by FITC fluorescence intensity measurement using a multi-mode microplate reader (Synergy-2, BioTek Instruments, Inc., Winooski, Vt., USA). To detect macromolecule m-to-s movement across the mucosa, FD4 (0.1 mM) was applied into the mucosal bath and serosal FD4 content was assessed by FITC fluorescence intensity measurement.
Ussing chamber study: drug treatment. The following drugs were pretreated by addition to the mucosal (m) or serosal (s) bath 10 or 15 min before LPS addition to the mucosal bath: the lipid raft inhibitor MβCD (1 mM, m), the CD36 inhibitor SSO (0.1 mM, m), the muscarinic agonist CCh (10 μM, s), a competitive substrate for IAP (IAP inhibitor) GP (10 mM, m) (47), GLP-2 (100 nM, s), the dipeptidyl peptidase-4 (DPP4) inhibitor NVP-728 (10 μM, s) (36), the stable GLP-2 analog TDG (100 nM) (13), the insulin-like growth factor-1 (IGF-1) receptor tyrosine kinase inhibitor NVP-AEW-541 (10 μM, s) (22), the epidermal growth factor (EGF) tyrosine kinase inhibitor PD153035 (1 μM, s) (6), the nitric oxide (NO) synthase (NOS) inhibitor L-NAME (0.1 mM, s) and the selective VPAC1 antagonist PG97-269 (1 μM) (26).

| Compound | inhibitory effect of GLP-2 on LPS transport during OA/TCA exposure | amount of LPS transport at t=15 min (prior to OA/TCA exposure), in presence of GLP-2 + NVP-728 | OA/TCA-augmented LPS transport (t=30-45 min) | LPS transport at t=15 min (LPS alone, absence of OA/TCA) |
| --- | --- | --- | --- | --- |
| COC(=O)[C@@H](N)CCCNC(=N)N[N+](=O)[O-] [L-NAME, Nω-nitro-L-arginine methyl ester] | reversed | no effect |  |  |
| CCCCCCCC/C=C\CCCCCCCC(=O)ON1C(=O)CC(S(=O)(=O)O)C1=O (stereo not drawn) [SSO, sulfosuccinimidyl oleate] |  |  | abolished | no effect |
| CC[C@H](C)[C@H](NC(=O)[C@H](Cc1ccccc1)NC(=O)[C@H](CC(=O)O)NC(=O)[C@H](CCCNC(=N)N)NC(=O)[C@H](C)NC(=O)[C@H](C)NC(=O)[C@H](CC(C)C)NC(=O)[C@H](CC(N)=O)NC(=O)[C@H](CC(=O)O)NC(=O)[C@H](CC(C)C)NC(=O)[C@@H](NC(=O)[C@@H](NC(=O)[C@H](CC(N)=O)NC(=O)[C@H](CCSC)NC(=O)[C@H](CCC(=O)O)NC(=O)[C@H](CC(=O)O)NC(=O)[C@H](CO)NC(=O)[C@H](Cc1ccccc1)NC(=O)[C@H](CO)NC(=O)CNC(=O)[C@H](CC(=O)O)NC(=O)CNC(=O)[C@@H](N)Cc1c[nH]cn1)[C@@H](C)O)[C@@H](C)CC)C(=O)N[C@@H](CC(N)=O)C(=O)N[C@@H](Cc1c[nH]c2ccccc12)C(=O)N[C@@H](CC(C)C)C(=O)N[C@H](C(=O)N[C@@H](CCC(N)=O)C(=O)N[C@H](C(=O)N[C@@H](CCCCN)C(=O)N[C@H](C(=O)N[C@H](C(=O)N[C@@H](CC(=O)O)C(=O)O)[C@@H](C)O)[C@@H](C)CC)[C@@H](C)O)[C@@H](C)CC [TDG] |  |  | inhibited |  |
| [Ac-His^1, D-Phe^2, Lys^15, Arg^16, Leu^27]-VIP(1-7)-GRF(8-27) (HFDAVFTNSYRKVLKRLSARKLLQDIL; HELM PEPTIDE1{[ac].H.[dF].D.A.V.F.T.N.S.Y.R.K.V.L.K.R.L.S.A.R.K.L.L.Q.D.I.L.[am]}$$$$V2.0; SMILES CC[C@H](C)[C@H](NC(=O)[C@H](CC(=O)O)NC(=O)[C@H](CCC(N)=O)NC(=O)[C@H](CC(C)C)NC(=O)[C@H](CC(C)C)NC(=O)[C@H](CCCCN)NC(=O)[C@H](CCCNC(=N)N)NC(=O)[C@H](C)NC(=O)[C@H](CO)NC(=O)[C@H](CC(C)C)NC(=O)[C@H](CCCNC(=N)N)NC(=O)[C@H](CCCCN)NC(=O)[C@H](CC(C)C)NC(=O)[C@@H](NC(=O)[C@H](CCCCN)NC(=O)[C@H](CCCNC(=N)N)NC(=O)[C@H](Cc1ccc(O)cc1)NC(=O)[C@H](CO)NC(=O)[C@H](CC(N)=O)NC(=O)[C@@H](NC(=O)[C@H](Cc1ccccc1)NC(=O)[C@@H](NC(=O)[C@H](C)NC(=O)[C@H](CC(=O)O)NC(=O)[C@@H](Cc1ccccc1)NC(=O)[C@H](Cc1c[nH]cn1)NC(C)=O)C(C)C)[C@@H](C)O)C(C)C)C(=O)N[C@@H](CC(C)C)C(N)=O) [PG97-269] | reversed | no effect |  |  |
| methyl-β-cyclodextrin [MβCD] |  |  | inhibited | no effect |
